Like-named read-outs stand apart in the source and are kept apart here.
Key:
[1] = molecular target: T1, PI3K-α kinase (p110α/p85α) (Homo sapiens, UniProt P42336); test: Determination of PI3K kinase activity (ADP Transcreener, fluorescence polarization); type: biochemical; conditions: for IC50: ATP 10 μM; for increase of inhibitory activity against PI3K-α kinase compared with BKM-120: relative to BKM-120
T1 construct: purchased Invitrogen PV4788

[2] = molecular target: T2, PI3K-β kinase (p110β/p85α) (Homo sapiens, UniProt P42338); test: as above; type: biochemical; conditions: Table 1; ATP 10 μM; read-out: PI3K-β/nM (IC50 of inhibitory activity against PI3K kinase)
T2 construct: purchased Millipore 14-603
T2 sequence (P42338 whole entry): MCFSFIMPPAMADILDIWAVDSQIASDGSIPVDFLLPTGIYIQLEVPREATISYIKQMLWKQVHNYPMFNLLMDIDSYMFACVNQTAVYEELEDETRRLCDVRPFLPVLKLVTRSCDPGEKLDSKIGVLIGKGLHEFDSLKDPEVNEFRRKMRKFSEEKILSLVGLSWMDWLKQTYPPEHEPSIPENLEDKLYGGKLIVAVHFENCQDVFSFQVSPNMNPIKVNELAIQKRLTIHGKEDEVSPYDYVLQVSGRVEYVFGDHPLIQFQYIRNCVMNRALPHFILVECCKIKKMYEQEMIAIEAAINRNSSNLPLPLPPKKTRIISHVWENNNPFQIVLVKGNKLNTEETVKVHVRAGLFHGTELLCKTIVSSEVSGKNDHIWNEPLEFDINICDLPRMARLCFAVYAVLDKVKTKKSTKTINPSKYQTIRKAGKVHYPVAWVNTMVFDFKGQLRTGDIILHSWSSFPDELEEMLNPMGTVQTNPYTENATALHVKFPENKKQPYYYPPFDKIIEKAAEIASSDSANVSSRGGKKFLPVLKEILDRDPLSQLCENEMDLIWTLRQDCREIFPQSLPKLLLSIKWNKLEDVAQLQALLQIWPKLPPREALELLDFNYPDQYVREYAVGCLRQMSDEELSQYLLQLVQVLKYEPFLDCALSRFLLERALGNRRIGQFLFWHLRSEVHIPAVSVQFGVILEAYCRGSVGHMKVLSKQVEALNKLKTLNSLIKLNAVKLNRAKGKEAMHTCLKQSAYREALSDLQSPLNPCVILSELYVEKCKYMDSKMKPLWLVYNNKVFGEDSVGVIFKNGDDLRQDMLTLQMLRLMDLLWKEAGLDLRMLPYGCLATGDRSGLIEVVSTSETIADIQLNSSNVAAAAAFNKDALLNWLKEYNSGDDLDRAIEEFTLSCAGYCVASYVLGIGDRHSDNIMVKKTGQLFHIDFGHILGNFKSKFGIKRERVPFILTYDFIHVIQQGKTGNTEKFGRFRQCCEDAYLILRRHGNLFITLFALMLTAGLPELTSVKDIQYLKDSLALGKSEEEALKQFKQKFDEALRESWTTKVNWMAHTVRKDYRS
T2 sequence (P27986 whole entry partner): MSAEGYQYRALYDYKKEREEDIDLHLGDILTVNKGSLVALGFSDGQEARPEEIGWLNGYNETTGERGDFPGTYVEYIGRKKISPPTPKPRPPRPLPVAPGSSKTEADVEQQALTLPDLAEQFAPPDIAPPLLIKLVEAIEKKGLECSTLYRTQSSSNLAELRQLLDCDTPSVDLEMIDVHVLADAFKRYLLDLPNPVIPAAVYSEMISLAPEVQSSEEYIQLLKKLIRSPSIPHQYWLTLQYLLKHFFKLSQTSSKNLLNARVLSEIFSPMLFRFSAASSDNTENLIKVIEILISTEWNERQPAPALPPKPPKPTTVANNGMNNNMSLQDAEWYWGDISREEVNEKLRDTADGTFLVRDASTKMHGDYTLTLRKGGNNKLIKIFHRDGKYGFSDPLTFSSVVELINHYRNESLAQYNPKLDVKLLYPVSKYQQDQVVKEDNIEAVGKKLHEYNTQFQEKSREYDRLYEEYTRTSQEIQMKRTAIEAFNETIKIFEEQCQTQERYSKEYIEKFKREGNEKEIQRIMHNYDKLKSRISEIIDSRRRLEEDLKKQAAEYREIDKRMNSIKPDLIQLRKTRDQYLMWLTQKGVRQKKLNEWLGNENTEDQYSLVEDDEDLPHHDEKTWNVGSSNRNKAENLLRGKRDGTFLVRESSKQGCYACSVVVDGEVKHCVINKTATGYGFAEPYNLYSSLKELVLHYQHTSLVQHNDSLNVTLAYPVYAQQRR

[3] = molecular target: T3, PI3K-δ kinase (p110δ/p85α) (Homo sapiens, UniProt O00329); test: as above; type: biochemical; conditions: Table 1; ATP 10 μM; read-out: PI3K-δ/nM (IC50 of inhibitory activity against PI3K kinase)
T3 construct: purchased Millipore 14-604M
T3 sequence (O00329 whole entry): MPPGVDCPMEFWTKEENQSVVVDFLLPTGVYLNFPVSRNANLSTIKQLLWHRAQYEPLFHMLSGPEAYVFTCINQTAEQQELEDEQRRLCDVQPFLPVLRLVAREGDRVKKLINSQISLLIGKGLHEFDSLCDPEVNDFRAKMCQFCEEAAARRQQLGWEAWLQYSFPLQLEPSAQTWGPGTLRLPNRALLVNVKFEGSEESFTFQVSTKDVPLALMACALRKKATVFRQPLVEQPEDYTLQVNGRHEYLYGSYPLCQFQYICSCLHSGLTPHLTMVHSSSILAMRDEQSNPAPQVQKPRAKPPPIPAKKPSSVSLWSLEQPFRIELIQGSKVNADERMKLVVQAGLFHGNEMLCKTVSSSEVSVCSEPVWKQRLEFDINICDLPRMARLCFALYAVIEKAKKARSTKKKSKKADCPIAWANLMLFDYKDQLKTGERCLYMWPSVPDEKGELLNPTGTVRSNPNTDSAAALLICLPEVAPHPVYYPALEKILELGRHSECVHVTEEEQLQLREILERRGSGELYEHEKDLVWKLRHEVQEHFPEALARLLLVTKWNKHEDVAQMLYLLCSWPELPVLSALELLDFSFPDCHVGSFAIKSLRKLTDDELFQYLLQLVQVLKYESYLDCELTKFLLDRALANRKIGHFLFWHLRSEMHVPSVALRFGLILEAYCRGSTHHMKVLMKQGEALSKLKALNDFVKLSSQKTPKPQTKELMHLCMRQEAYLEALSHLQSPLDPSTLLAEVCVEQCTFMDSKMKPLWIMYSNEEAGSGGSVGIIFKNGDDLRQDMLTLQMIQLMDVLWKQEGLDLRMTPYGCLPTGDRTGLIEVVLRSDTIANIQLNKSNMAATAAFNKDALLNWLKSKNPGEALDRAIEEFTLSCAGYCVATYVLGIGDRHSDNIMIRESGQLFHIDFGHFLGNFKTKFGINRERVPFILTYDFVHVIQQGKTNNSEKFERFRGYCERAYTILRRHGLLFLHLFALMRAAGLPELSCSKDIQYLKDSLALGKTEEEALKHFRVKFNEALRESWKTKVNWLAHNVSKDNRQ
T3 sequence (P27986 whole entry partner): as the sequence (P27986 whole entry partner) above

PI3K-γ kinase (p110γ) = molecular target: T4, PI3K-γ kinase (p110γ) (Homo sapiens, UniProt P48736); test: as above; type: biochemical; conditions: Table 1; ATP 10 μM; read-out: PI3K-γ/nM (IC50 of inhibitory activity against PI3K kinase)
T4 construct: purchased Invitrogen PV4786
T4 sequence (P48736 whole entry): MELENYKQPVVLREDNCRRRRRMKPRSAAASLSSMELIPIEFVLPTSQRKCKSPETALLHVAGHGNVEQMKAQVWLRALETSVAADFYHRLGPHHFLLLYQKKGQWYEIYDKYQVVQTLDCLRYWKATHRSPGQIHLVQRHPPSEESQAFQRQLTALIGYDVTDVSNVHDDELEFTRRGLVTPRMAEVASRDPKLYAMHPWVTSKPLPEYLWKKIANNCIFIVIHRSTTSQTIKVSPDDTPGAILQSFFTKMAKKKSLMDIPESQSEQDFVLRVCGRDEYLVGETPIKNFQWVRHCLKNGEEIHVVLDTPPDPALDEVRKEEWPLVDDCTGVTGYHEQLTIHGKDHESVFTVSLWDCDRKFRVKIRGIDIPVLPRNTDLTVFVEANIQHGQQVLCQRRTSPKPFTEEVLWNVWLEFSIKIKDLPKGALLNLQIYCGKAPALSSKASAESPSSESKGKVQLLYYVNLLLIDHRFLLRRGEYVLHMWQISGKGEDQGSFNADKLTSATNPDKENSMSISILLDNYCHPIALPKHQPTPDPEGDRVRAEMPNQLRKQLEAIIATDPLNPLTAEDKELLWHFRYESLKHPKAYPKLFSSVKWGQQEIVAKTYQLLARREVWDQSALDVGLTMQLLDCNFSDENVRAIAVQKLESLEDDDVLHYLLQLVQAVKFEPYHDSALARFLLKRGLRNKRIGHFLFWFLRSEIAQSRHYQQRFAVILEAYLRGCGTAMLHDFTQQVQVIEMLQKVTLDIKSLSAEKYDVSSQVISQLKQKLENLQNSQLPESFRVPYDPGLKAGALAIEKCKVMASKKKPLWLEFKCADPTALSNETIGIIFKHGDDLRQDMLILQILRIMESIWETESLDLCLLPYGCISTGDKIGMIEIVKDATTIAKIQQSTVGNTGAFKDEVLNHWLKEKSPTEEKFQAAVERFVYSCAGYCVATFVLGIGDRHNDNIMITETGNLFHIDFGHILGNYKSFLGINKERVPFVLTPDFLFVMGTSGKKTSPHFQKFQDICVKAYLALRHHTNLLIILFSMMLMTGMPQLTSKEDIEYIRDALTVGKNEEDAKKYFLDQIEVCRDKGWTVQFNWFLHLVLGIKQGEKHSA
Outline: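 Each 25 μL reaction held PI3K enzyme (p110α/p85α 3 ng, p110β/p85α 60 ng, p110δ/p85α 90 ng, or p110γ 100 ng), 10 μM ATP, 30 μM PIP2:PS and 2% DMSO, incubated 1 h at 25 °C. Compounds were tested in duplicate across a 3-fold series, 0.00046–1 μM as prepared. ADP was detected by Transcreener fluorescence polarization, quantified against an ADP/ATP standard curve, and IC50 fitted.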

T47D cells = test: Cell inhibitory activity detected by MTT assay, T47D; type: cell-based; conditions: Homo sapiens, T47D, 72 h, read-out: T47D cell (IC50/nM), cell growth inhibition
[4] = Table 1, read-out: PI3K-α/nM (IC50 of inhibitory activity against PI3K kinase)
[5] = Table 2, read-out: PI3K-α/nM (IC50 of inhibitory activity against PI3K-α kinase)

T1 sequence (P42336 whole entry): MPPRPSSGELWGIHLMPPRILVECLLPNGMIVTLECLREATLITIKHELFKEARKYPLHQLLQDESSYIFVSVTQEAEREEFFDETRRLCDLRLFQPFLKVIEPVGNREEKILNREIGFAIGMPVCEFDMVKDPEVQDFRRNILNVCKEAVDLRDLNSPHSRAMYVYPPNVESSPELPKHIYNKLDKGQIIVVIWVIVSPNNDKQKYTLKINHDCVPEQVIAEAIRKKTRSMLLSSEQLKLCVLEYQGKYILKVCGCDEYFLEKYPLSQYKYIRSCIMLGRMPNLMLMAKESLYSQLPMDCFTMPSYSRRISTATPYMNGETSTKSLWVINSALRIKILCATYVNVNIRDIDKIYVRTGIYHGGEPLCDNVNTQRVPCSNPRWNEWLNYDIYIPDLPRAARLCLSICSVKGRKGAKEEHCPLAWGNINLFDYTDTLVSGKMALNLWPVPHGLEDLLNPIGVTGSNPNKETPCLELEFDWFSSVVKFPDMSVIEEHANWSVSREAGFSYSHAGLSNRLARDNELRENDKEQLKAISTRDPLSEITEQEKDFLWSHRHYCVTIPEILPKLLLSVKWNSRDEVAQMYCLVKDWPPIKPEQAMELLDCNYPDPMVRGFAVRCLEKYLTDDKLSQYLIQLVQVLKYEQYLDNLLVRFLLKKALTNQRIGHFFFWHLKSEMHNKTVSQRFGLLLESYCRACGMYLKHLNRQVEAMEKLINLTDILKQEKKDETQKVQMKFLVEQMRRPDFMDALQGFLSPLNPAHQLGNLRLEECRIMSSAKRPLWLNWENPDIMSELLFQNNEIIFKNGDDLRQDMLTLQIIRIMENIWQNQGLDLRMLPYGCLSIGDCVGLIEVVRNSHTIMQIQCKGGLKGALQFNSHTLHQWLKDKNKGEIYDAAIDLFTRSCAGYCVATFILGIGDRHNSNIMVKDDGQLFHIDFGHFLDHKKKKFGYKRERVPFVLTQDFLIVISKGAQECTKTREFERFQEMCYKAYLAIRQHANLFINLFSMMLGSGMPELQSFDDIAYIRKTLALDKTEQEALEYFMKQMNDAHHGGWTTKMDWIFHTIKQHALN
T1 sequence (P27986 whole entry partner): as the sequence (P27986 whole entry partner) above

Compound | IC50 [1, 4] [nM] | IC50 [2] [nM] | IC50 [3] [nM] | IC50 (PI3K-γ kinase (p110γ)) [nM] | IC50 (T47D cells) [nM] | increase of inhibitory activity against PI3K-α kinase compared with BKM-120 [1] | IC50 [1, 5] [nM]
C[C@H]1COCCN1c1nc(-c2cnc(N)cc2C(F)(F)F)cc(C2(S(C)(=O)=O)CCC2)n1 [Compound S-9] | 5 | 105 | 63 | 155 | 93 | about 10 times | –
CC(C)S(=O)(=O)C1(c2cc(-c3cnc(N)cc3C(F)(F)F)nc(N3CCOC[C@@H]3C)n2)CCC1 [Compound S-13, (S)-5-(6-(1-(isopropylsulfonyl)cyclobutyl)-2-(3-methylmorpholino)pyrimidin-4-yl)-4-(trifluoromethyl)pyridin-2-amine] | 67 | 1670 | 226 | > 3000 | 244 | – | –
CC(C)S(=O)(=O)C1(c2cc(-c3cnc(N)cc3C(F)(F)F)nc(N3CCOCC3)n2)CC1 [Compound S-18] | – | 548 | 246 | 957 | 160 | – | –
CC(C)S(=O)(=O)C1(c2cc(-c3cnc(N)cc3C(F)(F)F)nc(N3CCOCC3)n2)CCC1 [Compound S-19] | 80 | 512 | 493 | > 3000 | 178 | – | –
Nc1cc(C(F)(F)F)c(-c2cc(C3(S(=O)(=O)c4ccccc4)CCC3)nc(N3CCOCC3)n2)cn1 [Compound S-20] | 24 | 676 | 42 | 1160 | 332 | – | –
CCS(=O)(=O)C1(c2cc(-c3cnc(N)cc3C(F)(F)F)nc(N3CCOC[C@@H]3C)n2)CCC1 [Compound S-23] | 16 | 620 | 62 | 525 | 20 | – | –
C[C@H]1COCCN1c1nc(-c2cnc(N)cc2Cl)cc(C2(S(C)(=O)=O)CCC2)n1 [Compound S-31] | 12 | 171 | 103 | 148 | 73 | – | –
C[C@H]1COCCN1c1nc(-c2ccc(N)nc2)cc(C2(S(C)(=O)=O)CCC2)n1 [Compound S-32] | 76 | 977 | 161 | 923 | 95 | – | –
CS(=O)(=O)C1(c2cc(-c3cnc(N)cc3Cl)nc(N3CCOCC3)n2)CC1 [Compound S-37, 4-chloro-5-(6-(1-(methylsulfonyl)cyclopropyl)-2-morpholinopyrimidin-4-yl)pyridin-2-amine] | 4 | 28 | 84 | 114 | 202 | about 10 times | 4
CC(C)(c1cc(-c2cnc(N)cc2Cl)nc(N2CCOCC2)n1)S(C)(=O)=O [Compound S-38, 4-chloro-5-(6-(2-(methylsulfonyl)prop-2-yl)-2-morpholinopyrimidin-4-yl)pyridin-2-amine] | 17 | 113 | 212 | 369 | 244 | – | –
CC(C)(c1cc(-c2cnc(N)nc2C(F)(F)F)nc(N2CCOCC2)n1)S(C)(=O)=O [Compound S-45] | 35 | 28 | 17 | 78 | 163 | – | –
CS(=O)(=O)C1(c2cc(-c3cnc(N)nc3C(F)(F)F)nc(N3CCOCC3)n2)CC1 [Compound S-46] | 6 | 8 | 13 | 96 | 137 | about 10 times | –
C[C@@H]1COCCN1c1nc(-c2cnc(N)cc2Cl)cc(C(C)(C)S(C)(=O)=O)n1 [Compound S-67] | 6 | 208 | 59 | 113 | 88 | – | 6
C[C@@H]1COCCN1c1nc(-c2cnc(N)cc2Cl)cc(C2(S(C)(=O)=O)CC2)n1 [Compound S-68] | 8 | 92 | 143 | 184 | 73 | – | 8
COC(C)(C)c1cc(-c2cnc(N)cc2C(F)(F)F)nc(N2CCOCC2)n1 [Compound S-71, 5-(6-(2-methoxypropan-2-yl)-2-morpholinopyrimidin-4-yl)-4-(trifluoromethyl) pyridin-2-amine] | 9 | 177 | – | 1030 | 165 | – | –
COC(C)(C)c1cc(-c2cnc(N)cc2Cl)nc(N2CCOC[C@@H]2C)n1 [Compound S-75] | 23 | 943 | 810 | 654 | 249 | – | 23
COC(C)(C)c1cc(-c2cnc(N)cc2Cl)nc(N2CCOCC2)n1 [Compound S-76] | 53 | 316 | 207 | 228 | 289 | – | 53
CC(C)(c1cc(-c2cnc(N)cc2F)nc(N2CCOCC2)n1)S(C)(=O)=O [Compound S-81] | 43 | 812 | 178 | 181 | 123 | – | –
CS(=O)(=O)C1(c2cc(-c3cnc(N)cc3F)nc(N3CCOCC3)n2)CC1 [Compound S-82] | 39 | 86 | 132 | 116 | 62 | – | –
C[C@H]1COCCN1c1nc(-c2cnc(N)cc2F)cc(C2(S(C)(=O)=O)CC2)n1 [Compound S-83] | 20 | – | – | 204 | 30 | – | –
C[C@H]1COCCN1c1nc(-c2cnc(N)cc2F)cc(C(C)(C)S(C)(=O)=O)n1 [Compound S-84] | 21 | 812 | 18 | 219 | 33 | – | –
CCS(=O)(=O)C1(c2cc(-c3cnc(N)cc3F)nc(N3CCOCC3)n2)CC1 [Compound S-85] | 29 | 484 | 228 | 244 | 63 | – | 29

Second part, the compound after the results:

IC50 [1, 4] [nM] | IC50 [2] [nM] | IC50 [3] [nM] | IC50 (PI3K-γ kinase (p110γ)) [nM] | IC50 (T47D cells) [nM] | increase of inhibitory activity against PI3K-α kinase compared with BKM-120 [1] | IC50 [1, 5] [nM] | Compound
12 | 527 | 184 | 354 | 124 | – | – | CS(=O)(=O)C1(c2cc(-c3cnc(N)cc3C(F)(F)F)nc(N3CCOCC3)n2)CCC1 [Compound S-4]
42 | 1140 | 367 | 592 | 218 | – | – | CS(=O)(=O)C1(c2cc(-c3cnc(N)cc3C(F)(F)F)nc(N3CCOCC3)n2)CCCC1 [Compound S-10]
12 | 18 | 12 | 141 | 100 | – | – | C[C@H]1COCCN1c1nc(-c2cnc(N)nc2C(F)(F)F)cc(C2(S(C)(=O)=O)CCC2)n1 [Compound S-30]
12 | 115 | 58 | 112 | 120 | – | – | C[C@H]1COCCN1c1nc(-c2cnc(N)nc2)cc(C2(S(C)(=O)=O)CCC2)n1 [Compound S-33]
6 | 82 | 79 | 331 | 148 | – | – | C[C@H]1COCCN1c1nc(-c2cnc(N)cc2C(F)(F)F)cc(C(C)(C)S(C)(=O)=O)n1 [Compound S-41]
17 | 327 | 85 | 2020 | 208 | – | – | CCS(=O)(=O)C1(c2cc(-c3cnc(N)cc3C(F)(F)F)nc(N3CCOCC3)n2)CCC1 [Compound S-49, 5-(6-(1-(ethylsulfonyl)cyclobutyl)-2-morpholinopyrimidin-4-yl)-4-(trifluoromethyl)pyridin-2-amine]
12 | 92 | 145 | 199 | 255 | – | – | CS(=O)(=O)C(F)(F)c1cc(-c2cnc(N)cc2Cl)nc(N2CCOCC2)n1 [Compound S-54, 4-chloro-5-(6-(difluoro(methylsulfonyl)methyl)-2-morpholinopyrimidin-4-yl)pyridin-2-amine]
4 | 72 | 33 | 121 | 129 | – | – | Nc1cc(C(F)(F)F)c(-c2cc(C3(S(=O)(=O)c4ccccc4F)CC3)nc(N3CCOCC3)n2)cn1 [Compound S-58]
9 | 73 | 46 | 160 | 147 | – | 9 | Nc1cc(Cl)c(-c2cc(C3(S(=O)(=O)c4ccccc4F)CC3)nc(N3CCOCC3)n2)cn1 [Compound S-66]
26 | 763 | 397 | 192 | 69 | – | 26 | CC(C)S(=O)(=O)C1(c2cc(-c3cnc(N)cc3F)nc(N3CCOCC3)n2)CC1 [Compound S-86]
48 | 521 | 209 | 98 | 81 | – | 48 | Nc1cc(F)c(-c2cc(C3(S(=O)(=O)C4CC4)CC3)nc(N3CCOCC3)n2)cn1 [Compound S-88]

From US10227324B2 (Shanghai Haiyan Pharmaceutical Technology Co., Ltd., priority 2014, dated 2019)
